Data as given in the supplement of paper PMC13380429.
± gives the standard deviation of the averaged measurements.

Legend:
Settings in all cases: 72 h
Calu-3 [1] = assay: relative viability EC50 (midpoint between 100% and the lowest measured viability); higher = less toxic
Vero E6 [2] = assay: as above
HepG2 [3] = assay: as above
U2OS [4] = assay: as above
Caco-2 [5] = assay: as above
Calu-3 [6] = assay: drug sensitivity score (DSS) for viability; higher = more toxic; extreme values may be limits of the assay
Vero E6 [7] = assay: as above
HepG2 [8] = assay: as above
U2OS [9] = assay: as above
Caco-2 [10] = assay: as above
Calu-3 [11] = assay: cell viability relative to DMSO; higher = less toxic
Vero E6 [12] = assay: as above
HepG2 [13] = assay: as above
U2OS [14] = assay: as above
Caco-2 [15] = assay: as above

Compound | relative viability EC50 (Calu-3 [1]) | relative viability EC50 (Vero E6 [2]) | relative viability EC50 (HepG2 [3]) | relative viability EC50 (U2OS [4]) | relative viability EC50 (Caco-2 [5]) | drug sensitivity score (Calu-3 [6]) | drug sensitivity score (Vero E6 [7]) | drug sensitivity score (HepG2 [8]) | drug sensitivity score (U2OS [9]) | drug sensitivity score (Caco-2 [10]) | cell viability (Calu-3 [11]; 1 nM) | cell viability (Calu-3 [11]; 10 nM) | cell viability (Calu-3 [11]; 100 nM) | cell viability (Calu-3 [11]; 1000 nM) | cell viability (Calu-3 [11]; 10000 nM) | cell viability (Vero E6 [12]; 1 nM) | cell viability (Vero E6 [12]; 10 nM) | cell viability (Vero E6 [12]; 100 nM) | cell viability (Vero E6 [12]; 1000 nM) | cell viability (Vero E6 [12]; 10000 nM) | cell viability (HepG2 [13]; 1 nM) | cell viability (HepG2 [13]; 10 nM) | cell viability (HepG2 [13]; 100 nM) | cell viability (HepG2 [13]; 1000 nM) | cell viability (HepG2 [13]; 10000 nM) | cell viability (U2OS [14]; 1 nM) | cell viability (U2OS [14]; 10 nM) | cell viability (U2OS [14]; 100 nM) | cell viability (U2OS [14]; 1000 nM) | cell viability (U2OS [14]; 10000 nM) | cell viability (Caco-2 [15]; 1 nM) | cell viability (Caco-2 [15]; 10 nM) | cell viability (Caco-2 [15]; 100 nM) | cell viability (Caco-2 [15]; 1000 nM) | cell viability (Caco-2 [15]; 10000 nM)
O=S(=O)(Cc1ccccc1)Nc1ccc(-c2ccc3c(cnn3-c3ccc(F)cc3)c2)c(C(F)(F)F)c1 [GSK9027] | > 10 µM | > 10 µM | > 10 µM | > 10 µM | > 10 µM | 0 | 0 | 0.1 | 0 | 0.4 | 103% | 105% | 97.6% | 92.2% | 97.1% | 96% | 94.2% | 91.1% | 95.2% | 110% | 96% | 94.4% | 95.3% | 104% | 86.3% | 94.7% | 93.7% | 100% | 95.9% | 93.7% | 90.8% | 98.6% | 99.7% | 97.7% | 85.5%
CC(C)(S)C(N)C(=O)O (stereo in doubt) [penicillamine-(racemic)] | > 10 µM | > 10 µM | > 10 µM | > 10 µM | > 10 µM | 0 | 0 | 0 | 0 | 0 | 95.7 ± 11% | 94.9 ± 13% | 98.3 ± 5% | 106 ± 3.7% | 108 ± 3.2% | 104 ± 6.7% | 102 ± 5.4% | 102 ± 2.6% | 99.9 ± 7.1% | 101 ± 3.6% | 103% | 106% | 110% | 95% | 100% | 103 ± 1.8% | 97.4 ± 2.1% | 100.2 ± 0.35% | 98.5 ± 6.2% | 101 ± 1.1% | 105 ± 1.9% | 98 ± 0.42% | 96 ± 3.5% | 93.7 ± 4.4% | 98.55 ± 0.35%
Cn1c(=O)[nH]c2ncn(C)c2c1=O [paraxanthine] | > 10 µM | > 10 µM | > 10 µM | > 10 µM | > 10 µM | 0 | 0 | 0 | 0 | 0 | 94.9% | 101% | 92.9% | 89.8% | 98.1% | 95.5% | 95.8% | 99.2% | 93.5% | 98.2% | 102% | 100% | 106% | 103% | 93.2% | 97.4% | 101% | 98.2% | 100% | 99.7% | 95.4% | 106% | 97.4% | 102% | 91.8%
CC(C)CC(NC(=O)OCC1c2ccccc2-c2ccccc21)C(=O)O (stereo in doubt) | > 10 µM | > 10 µM | > 10 µM | > 10 µM | > 10 µM | 0 | 0 | 0 | 0 | 0 | 89.2% | 102% | 107% | 102% | 92.8% | 97.3% | 102% | 95.6% | 94.5% | 108% | 90.3% | 103% | 90.1% | 102% | 97.8% | 91% | 95.3% | 105% | 99.7% | 101% | 85.2% | 90.4% | 104% | 96.5% | 98.2%
Cc1ccc2c(c1)c1c3n2CCNC3CCC1 (stereo not given) [pirlindole] | > 10 µM | > 10 µM | > 10 µM | > 10 µM | > 10 µM | 0 | 0 | 0.3 | 0 | 0 | 98.1% | 100% | 98% | 102% | 99.1% | 97.7% | 100% | 97.6% | 101% | 101% | 100% | 98% | 99.9% | 102% | 82.4% | 100% | 102% | 96.9% | 103% | 102% | 90.9% | 101% | 97.9% | 101% | 104%
C[C@]12CC[C@H](O)C[C@H]1CC[C@@H]1[C@@H]2C[C@@H](O)[C@]2(C)[C@@H](C3=CC(=O)OC3)CC[C@]12O [digoxigenin] | 2.19 µM | 0.163 µM | 0.52 µM | 1.14 µM | 1.28 µM | 5.3 | 21.4 | 12.8 | 10 | 5.7 | 99.8% | 111% | 101% | 91.6% | 29% | 107% | 108% | 77.4% | 1.3% | 1.1% | 100% | 109% | 89.1% | 39.5% | 12.6% | 96.9% | 105% | 92.3% | 58.4% | 5.8% | 92.9% | 106% | 114% | 80.5% | 44.6%
FC(F)(F)c1ccccc1-c1cc(C(F)(F)F)c2[nH]c(C3=NOC4(CCCCC4)C3)nc2c1 [TC-I-2014] | > 10 µM | > 10 µM | > 10 µM | > 10 µM | > 10 µM | 0 | 0 | 0 | 0 | 0 | 112% | 105% | 97.7% | 99.8% | 97.7% | 95.6% | 98.8% | 90.1% | 94.8% | 89.5% | 91.6% | 103% | 97.4% | 98.4% | 89.3% | 106% | 103% | 103% | 100% | 90.7% | 91.9% | 95.5% | 96.8% | 93.4% | 89.8%
